What all share (type): cell-based
The target in experiment [1] is T1, MRGPRX2 (Homo sapiens, UniProt Q96LB1).
T1 sequence (Q96LB1 1-330): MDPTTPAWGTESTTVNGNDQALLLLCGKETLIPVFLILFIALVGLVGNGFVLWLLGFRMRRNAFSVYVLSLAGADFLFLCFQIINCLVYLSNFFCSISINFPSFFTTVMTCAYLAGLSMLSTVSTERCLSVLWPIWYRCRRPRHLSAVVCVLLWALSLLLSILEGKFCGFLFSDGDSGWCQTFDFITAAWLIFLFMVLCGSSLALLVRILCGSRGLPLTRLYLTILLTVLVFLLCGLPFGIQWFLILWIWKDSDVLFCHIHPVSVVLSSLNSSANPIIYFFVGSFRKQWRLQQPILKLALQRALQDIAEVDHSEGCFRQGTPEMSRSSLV
Description: MRGPRX2 FLIPR calcium mobilization assay. On the set-up: host or cells: CHO-K1. As to conditions: CHO-K1 cells stably expressing human MRGPRX2; Ca2+ release; agonist Cortistatin-14 at EC80. In outline: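 CHO-K1 cells stably expressing the receptor, loaded with Calcium 6 dye, then preincubated 30 min at r.t. with compound in HBSS/20 mM HEPES pH 7.4. Cortistatin-14 at EC80 added; baseline-adjusted maximum RFU read over 110 s. IC50 from 3- or 4-parameter Hill fit.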
For orientation: Calcium assays in cells follow changes in intracellular calcium, usually with a dye or a luminescent sensor.

The target in experiment [2] is T1, MRGPRX2. Description: MRGPRX2 IP1 HTRF assay. On the set-up: host or cells: CHO-K1. Particulars: CHO-K1 cells stably expressing human MRGPRX2; IP1 accumulation; agonist Cortistatin 14 1 μM. In outline: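 CHO-K1 cells stably expressing human MRGPRX2, preincubated with compound 1 h at 37 °C, then stimulated with 1 μM Cortistatin 14 for 1 h. IP1 measured by HTRF against standard curve, normalized to DMSO and reference antagonist controls; IC50 from 3- or 4-parameter Hill fit.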
(In general: TR-FRET usually uses a lanthanide donor and a delayed reading to cut background.)

Experiment [3] concerns the target T1, MRGPRX2. Description: MRGPRX2 β-Arrestin recruitment assay (PathHunter). On the set-up: host or cells: CHO-K1 (PathHunter). As to conditions: PathHunter CHO-K1 MRGPRX2 β-Arrestin cell line; agonist Cortistatin 14 0.25 μM. In outline:
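CHO-K1 PathHunter cells co-expressing ProLink-tagged MRGPRX2 and enzyme-acceptor-tagged β-arrestin were preincubated with compound 1 h at 37° C., then stimulated with cortistatin-14 (0.25 μM final) for 90 min. Enzyme-complementation luminescence read after 1 h detection; data normalized to DMSO and reference antagonist, IC50 from 3- or 4-parameter Hill fit.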
On the technique in general: Arrestin recruitment assays detect the binding of arrestin to an activated receptor.

Our source for the IC50 values is patent US20250084087A1, “BICYCLIC HETEROCYCLES AS MRGPRX2 ANTAGONISTS” (Incyte Corporation, priority 2023, published 2025).

As a reminder, the IC50 is the concentration at which inhibition is half-maximal.

The structures appear in SMILES notation.

With `O=C(N[C@H]1CC[C@H](O)CC1)N1CC(CNc2cc(C(F)(F)F)nc3cc(C(F)(F)F)nn23)(c2ccc(F)cc2)C1` [Example 48, 3-(((2,5-Bis(trifluoromethyl)pyrazolo[1,5-a]pyrimidin-7-yl)amino)methyl)-3-(4-fluorophenyl)-N-((1r,4r)-4-hydroxycyclohexyl)azetidine-1-carboxamide], the IC50 at MRGPRX2 [1], at MRGPRX2 [2] and on MRGPRX2 [3] was 0.1 to 100 nM throughout.
As for `O=C(N[C@H]1C[C@H](O)C1)N1CC(CNc2cc(C(F)(F)F)nc3cc(C(F)(F)F)nn23)(c2ccc(F)cc2)C1` [Example 49, 3-(((2,5-Bis(trifluoromethyl)pyrazolo[1,5-a]pyrimidin-7-yl)amino)methyl)-3-(4-fluorophenyl)-N-((1r,3r)-3-hydroxycyclobutyl)azetidine-1-carboxamide], the IC50 at MRGPRX2 [1], on MRGPRX2 [2] and on MRGPRX2 [3] was 0.1 to 100 nM throughout.
As to `NC(=O)N1CC(CNc2cc(C(F)(F)F)nc3cc(Cl)nn23)(c2ccc(F)cc2)C1` [Example 57, 3-(((2-Chloro-5-(trifluoromethyl)pyrazolo[1,5-a]pyrimidin-7-yl)amino)methyl)-3-(4-fluorophenyl)azetidine-1-carboxamide], the IC50 on MRGPRX2 [1], on MRGPRX2 [2] and on MRGPRX2 [3] was 0.1 to 100 nM throughout.
In the case of `NC(=O)N1CC(CNc2cc(C(F)(F)F)nc3cc(Br)nn23)(c2ccc(Cl)cc2)C1` [Example 58, 3-(((2-Bromo-5-(trifluoromethyl)pyrazolo[1,5-a]pyrimidin-7-yl)amino)methyl)-3-(4-chlorophenyl)azetidine-1-carboxamide], the IC50 at MRGPRX2 [1], on MRGPRX2 [2] and on MRGPRX2 [3] was 0.1 to 100 nM in each case.
Regarding `NS(=O)(=O)N1CC(CNc2cc(C(F)(F)F)nc3cc(C(F)(F)F)nn23)(c2ccc(F)cn2)C1` [Example 59, 3-(((2,5-Bis(trifluoromethyl)pyrazolo[1,5-a]pyrimidin-7-yl)amino)methyl)-3-(5-fluoropyridin-2-yl)azetidine-1-sulfonamide], the IC50 on MRGPRX2 [1], at MRGPRX2 [2] and at MRGPRX2 [3] was 0.1 to 100 nM in each case.
`[2H]C([2H])([2H])NC(=O)N1CC(CNc2cc(C(F)(F)F)nc3cc(C(F)(F)F)nn23)(c2ccc(F)cn2)C1` [Example 61, 3-(((2,5-Bis(trifluoromethyl)pyrazolo[1,5-a]pyrimidin-7-yl)amino)methyl)-3-(5-fluoropyridin-2-yl)-N-(methyl-d3)azetidine-1-carboxamide]: the IC50 at MRGPRX2 [1], on MRGPRX2 [2] and on MRGPRX2 [3] was 0.1 to 100 nM in each case.
`[2H]C([2H])([2H])NC(=O)N1CC(CNc2cc(C(F)(F)F)nc3cc(C(F)F)nn23)(c2ccc(F)cc2)C1` [Example 62, 3-(((2-(Difluoromethyl)-5-(trifluoromethyl)pyrazolo[1,5-a]pyrimidin-7-yl)amino)methyl)-3-(4-fluorophenyl)-N-(methyl-d3)azetidine-1-carboxamide]: the IC50 on MRGPRX2 [1], at MRGPRX2 [2] and on MRGPRX2 [3] was 0.1 to 100 nM in each case.
As to `NC(=O)N1CC(CNc2cc(Cl)nc3cc(C(F)(F)F)nn23)(c2ccc(F)cc2)C1` [Example 66, 3-(((5-Chloro-2-(trifluoromethyl)pyrazolo[1,5-a]pyrimidin-7-yl)amino)methyl)-3-(4-fluorophenyl)azetidine-1-carboxamide], the IC50 on MRGPRX2 [1], on MRGPRX2 [2] and at MRGPRX2 [3] was 0.1 to 100 nM each time.
For the compound `Cc1cc(NCC2(c3ccc(F)cc3)CN(C(N)=O)C2)n2nc(C(F)(F)F)cc2n1` [Example 67, 3-(4-Fluorophenyl)-3-(((5-methyl-2-(trifluoromethyl)pyrazolo[1,5-a]pyrimidin-7-yl)amino)methyl)azetidine-1-carboxamide], the IC50 at MRGPRX2 [1], at MRGPRX2 [2] and on MRGPRX2 [3] was 0.1 to 100 nM throughout.
On to `CCc1cc(NCC2(c3ccc(F)cc3)CN(C(N)=O)C2)n2nc(C(F)(F)F)cc2n1` [Example 68, 3-(((5-Ethyl-2-(trifluoromethyl)pyrazolo[1,5-a]pyrimidin-7-yl)amino)methyl)-3-(4-fluorophenyl)azetidine-1-carboxamide], for which the IC50 on MRGPRX2 [1], on MRGPRX2 [2] and at MRGPRX2 [3] was 0.1 to 100 nM each time.
As for `NS(=O)(=O)N1CC(CNc2cc(C(F)(F)F)nc3cc(C4CC4)nn23)(n2cccn2)C1` [Example 94, 3-(((2-Cyclopropyl-5-(trifluoromethyl)pyrazolo[1,5-a]pyrimidin-7-yl)amino)methyl)-3-(1H-pyrazol-1-yl)azetidine-1-sulfonamide], the concentration for half-maximal inhibition (IC50) on MRGPRX2 [1] lay within 0.1 to 100 nM; at MRGPRX2 [2] it was 100 to 1000 nM; on MRGPRX2 [3], 100 to 1000 nM.
With `O=C(N[C@H]1CC[C@H](O)CC1)N1CC(CNc2cc(C(F)(F)F)nc3cc(Br)nn23)(c2ccc(F)cc2)C1` [Example 96, 3-(((2-Bromo-5-(trifluoromethyl)pyrazolo[1,5-a]pyrimidin-7-yl)amino)methyl)-3-(4-fluorophenyl)-N-((1r,4r)-4-hydroxycyclohexyl)azetidine-1-carboxamide], the IC50 on MRGPRX2 [1], on MRGPRX2 [2] and on MRGPRX2 [3] was 0.1 to 100 nM each time.
With `COc1cc(NCC2(c3ccc(F)cc3)CN(S(N)(=O)=O)C2)n2nc(C(F)(F)F)cc2n1` [Example 106, 3-(4-Fluorophenyl)-3-(((5-methoxy-2-(trifluoromethyl)pyrazolo[1,5-a]pyrimidin-7-yl)amino)methyl)azetidine-1-sulfonamide], the IC50 on MRGPRX2 [1], at MRGPRX2 [2] and at MRGPRX2 [3] was 0.1 to 100 nM throughout.
